Reference: ChEMBL document CHEMBL1136726, “Synthesis and characterization of iodine-123 labeled 2beta-carbomethoxy-3beta-(4'-((Z)-2-iodoethenyl)phenyl)nortropane. A ligand for in vivo imaging of serotonin transporters by single-photon-emission tomography” (J Med Chem, 2003)
pIC50, pKi: −log10 of the molar value.

Columns and labels:
[1] = biological target: T1, Sodium-dependent dopamine transporter (Homo sapiens, UniProt Q01959); experiment: Binding affinity towards dopamine transporter (DAT) by using [3H]WIN-35428 as radioligand
T1 sequence (Q01959 whole entry): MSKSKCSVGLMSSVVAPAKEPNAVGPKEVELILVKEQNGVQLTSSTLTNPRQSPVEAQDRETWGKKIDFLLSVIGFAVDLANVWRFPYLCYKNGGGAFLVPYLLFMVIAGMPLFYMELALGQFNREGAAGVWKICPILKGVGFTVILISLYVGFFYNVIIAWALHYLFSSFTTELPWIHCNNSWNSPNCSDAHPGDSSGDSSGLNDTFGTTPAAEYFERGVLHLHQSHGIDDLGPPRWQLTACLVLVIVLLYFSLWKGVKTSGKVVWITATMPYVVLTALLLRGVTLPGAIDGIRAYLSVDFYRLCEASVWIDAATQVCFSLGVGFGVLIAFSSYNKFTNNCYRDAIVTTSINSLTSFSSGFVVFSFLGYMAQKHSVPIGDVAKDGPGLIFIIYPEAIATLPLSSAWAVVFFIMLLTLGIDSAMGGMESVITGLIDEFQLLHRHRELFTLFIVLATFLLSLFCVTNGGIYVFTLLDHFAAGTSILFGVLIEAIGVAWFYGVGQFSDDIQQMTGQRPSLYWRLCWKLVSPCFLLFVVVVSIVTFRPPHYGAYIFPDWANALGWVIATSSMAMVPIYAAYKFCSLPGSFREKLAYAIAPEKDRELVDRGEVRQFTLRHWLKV

[2] = biological target: T2, Sodium-dependent serotonin transporter (Homo sapiens, UniProt P31645); experiment: Binding affinity towards serotonin transporter (SERT) by using [3H]paroxetine as radioligand
T2 sequence (P31645 whole entry): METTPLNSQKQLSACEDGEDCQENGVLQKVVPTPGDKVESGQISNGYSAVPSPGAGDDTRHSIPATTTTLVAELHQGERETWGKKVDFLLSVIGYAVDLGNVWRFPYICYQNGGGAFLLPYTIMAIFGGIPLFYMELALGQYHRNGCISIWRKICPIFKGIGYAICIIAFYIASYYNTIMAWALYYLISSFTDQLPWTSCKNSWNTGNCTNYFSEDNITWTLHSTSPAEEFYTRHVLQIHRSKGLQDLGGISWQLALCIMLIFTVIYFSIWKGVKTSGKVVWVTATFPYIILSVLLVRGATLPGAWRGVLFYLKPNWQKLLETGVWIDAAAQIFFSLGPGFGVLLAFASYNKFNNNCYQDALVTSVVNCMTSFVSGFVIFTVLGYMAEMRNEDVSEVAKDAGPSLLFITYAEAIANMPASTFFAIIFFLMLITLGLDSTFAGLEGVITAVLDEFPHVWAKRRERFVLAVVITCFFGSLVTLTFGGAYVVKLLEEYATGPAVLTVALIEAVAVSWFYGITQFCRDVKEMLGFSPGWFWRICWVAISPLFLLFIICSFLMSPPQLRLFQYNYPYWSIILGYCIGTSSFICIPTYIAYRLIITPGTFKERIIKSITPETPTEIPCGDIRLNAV

[3] = biological target: T1, Sodium-dependent dopamine transporter; experiment: In vitro competitive binding versus [N-methyl-3H]WIN-35428 in murine kidney cells transfected with cDNA for human dopamine transporter (DAT); assay type: cell-based
[4] = biological target: T2, Sodium-dependent serotonin transporter; experiment: Binding affinity towards serotonin transporter (SERT)
[5] = biological target: Sodium-dependent noradrenaline transporter (Homo sapiens, UniProt P23975); experiment: In vitro competitive binding versus [3H]- […] in murine kidney cells transfected with cDNA for human norepinephrine transporter (NET); assay type: cell-based
Chain of Sodium-dependent noradrenaline transporter (P23975 whole entry): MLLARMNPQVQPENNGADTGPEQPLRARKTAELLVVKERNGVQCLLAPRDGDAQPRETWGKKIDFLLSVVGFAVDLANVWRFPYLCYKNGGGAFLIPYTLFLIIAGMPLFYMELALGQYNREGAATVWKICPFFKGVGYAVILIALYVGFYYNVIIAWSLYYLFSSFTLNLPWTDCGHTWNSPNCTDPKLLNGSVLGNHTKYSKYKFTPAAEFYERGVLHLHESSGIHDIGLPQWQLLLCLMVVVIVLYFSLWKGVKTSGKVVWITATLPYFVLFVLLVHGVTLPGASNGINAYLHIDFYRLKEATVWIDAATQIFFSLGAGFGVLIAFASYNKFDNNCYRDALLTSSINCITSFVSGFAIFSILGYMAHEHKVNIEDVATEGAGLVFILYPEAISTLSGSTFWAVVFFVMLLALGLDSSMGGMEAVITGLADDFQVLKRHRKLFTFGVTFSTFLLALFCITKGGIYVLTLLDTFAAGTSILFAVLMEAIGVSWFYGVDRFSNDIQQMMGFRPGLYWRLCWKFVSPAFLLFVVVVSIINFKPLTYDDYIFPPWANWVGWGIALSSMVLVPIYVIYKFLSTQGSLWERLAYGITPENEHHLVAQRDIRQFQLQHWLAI

[6] = biological target: T2, Sodium-dependent serotonin transporter; experiment: In vitro competitive binding versus [3H]citalopram in murine kidney cells transfected with cDNA for human serotonin transporter (SERT); assay type: cell-based
[7] = biological target: T2, Sodium-dependent serotonin transporter; experiment: In vitro competitive binding versus [3H]-citalopram in murine kidney cells transfected with cDNA for human serotonin transporter (SERT); assay type: cell-based

Which results are given for C/C=C/c1ccc([C@H]2CC3CCC([C@H]2C(=O)OC)N3C)cc1 (stereo not given in full)?
pIC50 [1]: 7.55; pIC50 [2]: 8.89

With COC(=O)[C@@H]1C2CCC(C[C@@H]1c1ccc(I)cc1)N2 (stereo not given in full) as the compound, how does the pKi [3] read?
The pKi was 9.92.

What about the pIC50 [4] of the same compound?
The pIC50 was 9.44.

Which results are given for C/C=C\c1ccc([C@H]2CC3CCC([C@H]2C(=O)OC)N3C)cc1 (stereo not given in full)?
pIC50 [1]: 7.49; pIC50 [2]: 8.94

COC(=O)[C@@H]1C2CC[C@H](C[C@@H]1c1ccc(I)cc1)N2C was tested. Which pKi [3] did it give?
The pKi was 9.32.

And the pKi [5]?
Its pKi is 8.85.

What about the pIC50 [4] of the same compound?
Its pIC50 is 8.38.

And the pKi [6]?
The pKi was 9.17.

Which results are given for COC(=O)[C@@H]1C2CCC(C[C@@H]1c1ccc(/C=C/I)cc1)N2 (stereo not given in full)?
pKi [3]: 8.73; pKi [5]: 7.49; pKi [7]: 8.94

C=Cc1ccc([C@H]2CC3CCC(N3)[C@H]2C(=O)CC)cc1 (stereo not given in full) was tested. Which pIC50 [2] did it give?
The pIC50 was 9.49.

C=C(C)c1ccc([C@H]2CC3CCC(N3)[C@H]2C(=O)CC)cc1 (stereo not given in full) was tested. Which pIC50 [2] did it give?
Its pIC50 is 9.80.
